Experimental data published in patent publication US20220323406A1, “METHODS AND COMPOSITIONS FOR DIFFERENTIATING STEM CELLS” (Massachusetts Institute of Technology, priority 2019, published 2022).
Structures can show the parent of a compound that is named as a salt.

Columns and labels:
[1] = test system: ENR+CD organoids (ISC to Paneth cell differentiation); test: Primary screen: basal (non-stimulated) lysozyme secretion LYZ.NS, 2.5-D 384-well ENR+CD organoid differentiation; type: cell-based, mouse
Description: (§1) High-throughput screening.

[2] = test system: ENR+CD organoids (ISC to Paneth cell differentiation); test: Primary screen: CCh-stimulated lysozyme secretion LYZ.S, 2.5-D 384-well ENR+CD organoid differentiation; type: cell-based, mouse; conditions: primary screen
Description: as §1

ENR+CD organoids = test: Primary screen: ATP (CellTiter-Glo 3D, CTG) cell number/viability, 2.5-D 384-well ENR+CD organoids; conditions: primary screen; for Z.CTG: standard z score;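 on all read-outs here: compounds given at plating and again on day 3 over a 6-day differentiation from ENR+CV stem-cell-enriched precursors, ATP measured on day 6, plate median as control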
[3] = dose 0.08 uM, FC vs plate median
[4] = dose 0.40 uM, FC vs plate median
[5] = dose 2.00 uM, FC vs plate median
[6] = dose 10.00 uM, FC vs plate median
[7] = primary screen, standard z score, dose 0.08 uM
[8] = primary screen, standard z score, dose 0.40 uM
[9] = primary screen, standard z score, dose 2.00 uM
[10] = primary screen, standard z score, dose 10.00 uM

Compound	Dose.FC.LYZ.NS ([1]; primary screen, dose 0.08 uM)	Z.LYZ.NS (standard z score) ([1]; primary screen, dose 0.08 uM)	Dose.FC.LYZ.NS ([1]; primary screen, dose 0.40 uM)	Z.LYZ.NS (standard z score) ([1]; primary screen, dose 0.40 uM)	Dose.FC.LYZ.NS ([1]; primary screen, dose 2.00 uM)	Z.LYZ.NS (standard z score) ([1]; primary screen, dose 2.00 uM)	Dose.FC.LYZ.NS ([1]; primary screen, dose 10.00 uM)	Z.LYZ.NS (standard z score) ([1]; primary screen, dose 10.00 uM)	Dose.FC.LYZ.S ([2]; dose 0.08 uM)	Dose.FC.LYZ.S ([2]; dose 0.40 uM)	Dose.FC.LYZ.S ([2]; dose 2.00 uM)	Dose.FC.LYZ.S ([2]; dose 10.00 uM)	Dose.FC.CTG (ENR+CD organoids; dose 0.08 uM)	Dose.FC.CTG (ENR+CD organoids; dose 0.40 uM)	Dose.FC.CTG (ENR+CD organoids; dose 2.00 uM)	Dose.FC.CTG (ENR+CD organoids; dose 10.00 uM)	also measured
CC[C@@H]1C(=O)N(C)c2cnc(Nc3ccc(C(=O)NC4CCN(C)CC4)cc3OC)nc2N1C1CCCC1 [BI 2536]	−0.104 log2 fold change	−0.907	−0.129 log2 fold change	−1.121	−0.134 log2 fold change	−1.168	−0.109 log2 fold change	−0.953	−0.163 log2 fold change	−0.220 log2 fold change	−0.224 log2 fold change	−0.185 log2 fold change	0.029 log2 fold change	−0.534 log2 fold change	−0.511 log2 fold change	−1.028 log2 fold change	–
CN(c1ncccc1CNc1nc(Nc2ccc3c(c2)CC(=O)N3)ncc1C(F)(F)F)S(C)(=O)=O [PF-562271]	–	–	–	–	–	–	–	–	–	–	–	–	–	–	–	–	Z.LYZ.NS ([1]; primary screen, dose 0.08 uM, standard z score): −0.589; Z.LYZ.NS ([1]; primary screen, dose 0.40 uM, standard z score): −1.325; Z.LYZ.NS ([1]; primary screen, dose 2.00 uM, standard z score): −2.034; Z.LYZ.NS ([1]; primary screen, dose 10.00 uM, standard z score): −2.184; Dose.FC.LYZ.NS ([1]; primary screen; dose 0.08 uM; FC vs plate median): −0.068 log2 fold change; Dose.FC.LYZ.NS ([1]; primary screen; dose 0.40 uM; FC vs plate median): −0.152 log2 fold change; Dose.FC.LYZ.NS ([1]; primary screen; dose 2.00 uM; FC vs plate median): −0.234 log2 fold change; Dose.FC.LYZ.NS ([1]; primary screen; dose 10.00 uM; FC vs plate median): −0.251 log2 fold change; Dose.FC.LYZ.S [2, 3]: −0.088 log2 fold change; Dose.FC.LYZ.S [2, 4]: −0.214 log2 fold change; Dose.FC.LYZ.S [2, 5]: −0.332 log2 fold change; Dose.FC.LYZ.S [2, 6]: −0.414 log2 fold change; Z.CTG (ENR+CD organoids; dose 0.08 uM): −0.273; Z.CTG (ENR+CD organoids; dose 0.40 uM): −0.518; Z.CTG (ENR+CD organoids; dose 2.00 uM): −1.311; Z.CTG (ENR+CD organoids; dose 10.00 uM): −2.266; Dose.FC.CTG (ENR+CD organoids; [3]): −0.114 log2 fold change; Dose.FC.CTG (ENR+CD organoids; [4]): −0.217 log2 fold change; Dose.FC.CTG (ENR+CD organoids; [5]): −0.549 log2 fold change; Dose.FC.CTG (ENR+CD organoids; [6]): −0.949 log2 fold change
Cc1c(Cl)cccc1Nc1ccccc1C(=O)O [Tolfenamic Acid]	0.028 log2 fold change	0.242	0.023 log2 fold change	0.200	0.107 log2 fold change	0.927	−0.039 log2 fold change	−0.343	0.118 log2 fold change	0.052 log2 fold change	−0.023 log2 fold change	−0.064 log2 fold change	0.196 log2 fold change	−0.003 log2 fold change	−0.159 log2 fold change	−0.115 log2 fold change	–
O=C(O)c1cccc(-c2noc(-c3ccccc3F)n2)c1 [Ataluren (PTC124)]	0.029 log2 fold change	0.253	0.042 log2 fold change	0.362	0.131 log2 fold change	1.140	0.009 log2 fold change	0.077	0.051 log2 fold change	0.034 log2 fold change	0.058 log2 fold change	0.005 log2 fold change	0.267 log2 fold change	−0.340 log2 fold change	−0.042 log2 fold change	0.006 log2 fold change	Z.CTG (standard z score) (ENR+CD organoids; dose 0.08 uM): 0.639; Z.CTG (standard z score) (ENR+CD organoids; dose 0.40 uM): −0.813; Z.CTG (standard z score) (ENR+CD organoids; dose 2.00 uM): −0.100; Z.CTG (standard z score) (ENR+CD organoids; dose 10.00 uM): 0.013
CC[C@H](NC(=O)[C@H](C)NC)C(=O)N1C[C@@H](O)C[C@H]1Cc1c(-c2[nH]c3cc(F)ccc3c2C[C@@H]2C[C@H](O)CN2C(=O)[C@H](CC)NC(=O)[C@H](C)NC)[nH]c2cc(F)ccc12 [Birinapant]	0.032 log2 fold change	0.281	−0.012 log2 fold change	−0.102	0.036 log2 fold change	0.317	−0.029 log2 fold change	−0.256	0.075 log2 fold change	0.103 log2 fold change	0.011 log2 fold change	−0.080 log2 fold change	−0.257 log2 fold change	0.095 log2 fold change	0.227 log2 fold change	0.123 log2 fold change	–
CCNC(=O)[C@H]1O[C@@H](n2cnc3c(N)nc(NCCc4ccc(CCC(=O)O)cc4)nc32)[C@H](O)[C@@H]1O [CGS 21680 HCl]	0.132 log2 fold change	–	0.167 log2 fold change	–	0.055 log2 fold change	–	−0.251 log2 fold change	–	0.180 log2 fold change	0.191 log2 fold change	0.097 log2 fold change	−0.334 log2 fold change	0.303 log2 fold change	0.439 log2 fold change	0.335 log2 fold change	−1.393 log2 fold change	Z.LYZ.NS [1, 7]: 1.151; Z.LYZ.NS [1, 8]: 1.452; Z.LYZ.NS [1, 9]: 0.483; Z.LYZ.NS [1, 10]: −2.187
COc1cc(-n2c(=S)[nH]c3ccccc3c2=O)c(Cl)cc1Cl [Mdivi-1]	–	1.537	–	1.358	–	−0.194	–	−2.333	–	–	–	–	–	–	–	–	Dose.FC.LYZ.NS (log2 fold change) ([1]; primary screen, dose 0.08 uM): 0.177; Dose.FC.LYZ.NS (log2 fold change) ([1]; primary screen, dose 0.40 uM): 0.156; Dose.FC.LYZ.NS (log2 fold change) ([1]; primary screen, dose 2.00 uM): −0.022; Dose.FC.LYZ.NS (log2 fold change) ([1]; primary screen, dose 10.00 uM): −0.268; Dose.FC.LYZ.S (log2 fold change) ([2]; dose 0.08 uM): 0.079; Dose.FC.LYZ.S (log2 fold change) ([2]; dose 0.40 uM): 0.030; Dose.FC.LYZ.S (log2 fold change) ([2]; dose 2.00 uM): −0.048; Dose.FC.LYZ.S (log2 fold change) ([2]; dose 10.00 uM): −0.411; Dose.FC.CTG (log2 fold change) (ENR+CD organoids; dose 0.08 uM): 0.008; Z.CTG (standard z score) (ENR+CD organoids; dose 0.08 uM): 0.019; Dose.FC.CTG (log2 fold change) (ENR+CD organoids; dose 0.40 uM): −0.031; Z.CTG (standard z score) (ENR+CD organoids; dose 0.40 uM): −0.074; Dose.FC.CTG (log2 fold change) (ENR+CD organoids; dose 2.00 uM): −0.112; Z.CTG (standard z score) (ENR+CD organoids; dose 2.00 uM): −0.267; Dose.FC.CTG (log2 fold change) (ENR+CD organoids; dose 10.00 uM): −0.527; Z.CTG (standard z score) (ENR+CD organoids; dose 10.00 uM): −1.259
COc1ccc2cccc(CCNC(C)=O)c2c1 [Agomelatine]	0.026 log2 fold change	0.227	0.080 log2 fold change	0.695	0.069 log2 fold change	0.597	−0.033 log2 fold change	−0.285	0.090 log2 fold change	0.132 log2 fold change	−0.037 log2 fold change	0.008 log2 fold change	0.106 log2 fold change	0.081 log2 fold change	−0.198 log2 fold change	0.024 log2 fold change	–
Cc1c(-c2ccc(O)cc2)n(Cc2ccc(OCCN3CCCCCC3)cc2)c2ccc(O)cc12 [Bazedoxifene HCl]	0.159 log2 fold change	1.386	0.026 log2 fold change	0.229	−0.146 log2 fold change	−1.267	−0.280 log2 fold change	−2.442	0.096 log2 fold change	0.065 log2 fold change	−0.189 log2 fold change	−0.361 log2 fold change	0.422 log2 fold change	0.365 log2 fold change	−0.780 log2 fold change	−1.148 log2 fold change	–
C[C@@H]1CN(CC(=O)Nc2ccc3c(c2)Cc2cccc(-c4cc(=O)cc(N5CCOCC5)o4)c2S3)C[C@H](C)O1 [KU-60019]	–	0.365	–	−0.012	–	−0.132	–	−0.769	–	–	–	–	–	–	–	–	Dose.FC.LYZ.NS (log2 fold change) ([1]; primary screen, dose 0.08 uM): 0.042; Dose.FC.LYZ.NS (log2 fold change) ([1]; primary screen, dose 0.40 uM): −0.001; Dose.FC.LYZ.NS (log2 fold change) ([1]; primary screen, dose 2.00 uM): −0.015; Dose.FC.LYZ.NS (log2 fold change) ([1]; primary screen, dose 10.00 uM): −0.088; Dose.FC.LYZ.S (log2 fold change) ([2]; dose 0.08 uM): 0.230; Dose.FC.LYZ.S (log2 fold change) ([2]; dose 0.40 uM): 0.073; Dose.FC.LYZ.S (log2 fold change) ([2]; dose 2.00 uM): −0.049; Dose.FC.LYZ.S (log2 fold change) ([2]; dose 10.00 uM): −0.222; Dose.FC.CTG (log2 fold change) (ENR+CD organoids; dose 0.08 uM): 0.114; Dose.FC.CTG (log2 fold change) (ENR+CD organoids; dose 0.40 uM): 0.039; Dose.FC.CTG (log2 fold change) (ENR+CD organoids; dose 2.00 uM): 0.121; Dose.FC.CTG (log2 fold change) (ENR+CD organoids; dose 10.00 uM): −0.522
CC(C)n1c(/C=C/C(O)CC(O)CC(=O)O)c(-c2ccc(F)cc2)c2ccccc21 (centres unmarked) [Fluvastatin Sodium]	0.112 log2 fold change	–	−0.146 log2 fold change	–	−0.203 log2 fold change	–	−0.159 log2 fold change	–	0.026 log2 fold change	−0.177 log2 fold change	−0.293 log2 fold change	−0.267 log2 fold change	−0.161 log2 fold change	−0.482 log2 fold change	−1.111 log2 fold change	−1.761 log2 fold change	Z.LYZ.NS [1, 7]: 0.979; Z.LYZ.NS [1, 8]: −1.275; Z.LYZ.NS [1, 9]: −1.764; Z.LYZ.NS [1, 10]: −1.388
